Reference: US5985926A, “Method for inhibiting intracellular viral replication” (Cell Therapeutics, Inc., priority 1997, dated 1999)

Assays:
[1] = system: HIV-LTR promoter (tat transactivation) in 293-EBNA cells; assay: AP reporter gene expression from HIV-LTR promoter with tat expression vector, 293-EBNA cells; assay type: cell-based, HIV; human cells; conditions: 293-EBNA cells, HIV promoter, in words
Excerpt: The plasmid construct, pHIV.AP, using the human immunodeficiency virus (HIV) long terminal repeat (LTR) promoter (derived from pU3R-III CAT, Sodroski et al., Science 227:171, 1985) to direct the expression of the sPAP reporter gene, was made by replacing the CMV promoter region from pCMV.AP with the HIV-LTR promoter. PHIV.AP was co-transfected with pSV2tat72, an expression vector for the 72 amino acids tat protein from HIV (Frankel and Pabo, Cell 55:1189-1193, 1988), into 293-EBNA cells (Invitrogen). The cultured cells were treated with various concentrations of the compounds. The expression of the alkaline phosphatase (AP) reporter gene in the individual cultures was measured by following change in absorbance at 405 nm of the cell conditioned media in the presence of a suitable substrate (e.g., ortho-nitrophenol phosphate) (Berger et al., Gene 66:1-10, 1988).
We set up a cell-based system with a cell line cotransfected with an expression plasmid using HIV-1-LTR promoter to direct synthesis of AP reporter gene and an expression plasmid to direct synthesis of the first 72 amino acids of tat protein. Plasmid pREP7 (Invitrogen) was converted to pREP7b by deleting 2,040 bp EBNA-1 coding region and by replacing the pBR322 origin of replication (ori) with the pBluescript KS (Stratagene) ori region. The cDNA for secreted placental alkaline phosphatase (AP) was generated by PCR with the primers (5'-[…]-3')(SEQ ID NO. 3) and (5'-[…]-3') (SEQ ID NO. 4)using the plasmid pGEM-4Z/PLAP489 (American Type Culture Collection) as the template. The 2,000 bp Xba I-Sal I fragment obtained was ligated into a Nhe I/Xho I vector derived from pREP7b to generate the plasmid pREP7b.AP. The 44 bp Xba I-Bgl II fragment from plasmid pMEP4 (Invitrogen)and the 36 bp BamH I-Kpn I fragment from pREP7 were ligated into the Xba I-Kpn I vector fragment from pREP7b.AP to generate the plasmid pMCS.AP. The 720 bp Xho I-Hind III fragment encoding the HIV-LTR promoter from the plasmid pU3R-III-CAT (Sodroski et al., Science 227:171-173, 1985) was ligated into the Xho I-Hind III vector fragment of PMCS.AP to generate the plasmid pHIV.AP. The CMV promoter was derived from the 600 bp Spe I-Asp718 I fragment from pCEP4 (Invitrogen). The 360 bp SV40 early promoter fragments were produced from pSV2tat72 (Frankel et al., Cell 55:1189-1193,1988) by PCR using the primers (5'-[…]-3') (SEQ ID NO. 5) and (5'-[…]-3') (SEQ ID NO. 6). The 480 bp phosphoglycerate kinase (PGK) promoter fragment was amplified from human placental genomic DNA (Promega, Madison, Wis.) based on published sequence (Pfeifer et al., Science 246:810-813, 1990) using the primers (5'-[…]-3') (SEQ ID NO. 7) and (5'-[…]-3') (SEQ ID NO. 8). The above fragments were ligated into the Xba I-Asp718 I vector fragment of pHIV.AP to generate pHIV2.AP, pHIV3.AP, pCMV.AP, pSVE.AP and PPGK.AP respectively. The tat-expression plasmid directed by HIV-LTR promoter, pHIV.tat, was generated by inserting the 400 bp EcoRV-HindIII fragment from pHIV.AP into the PvuII-HindIII vector fragment from pSV2tat72 (Frankel et al., Cell 55:1189-1193, 1988).
Transient transfections with various expression plasmids were performed on a human kidney embryonic cell line 293-EBNA (Invitrogen) using the cationic lipid DOTAP (Boehringer Mannheim). The cell culture media were changed 24 hr after transfection into a serum-free medium AIM V (Life Technologies) before addition of compounds or TNF-α (PeproTech) at the appropriate concentrations. AP activity measured by a colorimetric assay (Berger et al., Gene 66:1-10, 1988) was performed 19-24 hr later.

[2] = system: CMV promoter in 293-EBNA cells; assay: AP reporter gene expression from CMV promoter, 293-EBNA cells stably transfected with pCMV.AP; assay type: cell-based, human cytomegalovirus; human cells; conditions: for IC50: Homo sapiens, 293-EBNA stably transfected with pCMV.AP (FIG. 6), read-out: IC50, AP reporter gene expression (pCMV.AP); for inhibition of AP expression (CMV promoter): in words
Procedure: An assay for measuring the anti-viral activity of the compounds involves testing the abilities of the compounds to inhibit gene expression directed by specific viral promoters in cell lines. Specifically, a plasmid construct, pCMV.AP, using the human cytomegalovirus (CMV) enhancer and promoter to direct the expression of the secreted human placental alkaline phosphatase reporter gene were transformed into a tumor cell line (e.g., 293-EBNA cells). The cultured cells were treated with various concentrations of the compounds. The expression of the alkaline phosphatase (AP) reporter gene in the individual cultures can then be measured by following the change in absorbance at A405 of the cell conditioned media in the presence of a suitable substrate (e.g., ortho-nitrophenol phosphate) (Berger et al., Gene 66:1,1988).
The construction of expression vectors for secreted placental alkaline phosphatase (sPAP) was performed by obtaining a mammalian episomal expression vector pBL3, derived from the plasmids pMEP4 and pCEP4 (Invitrogen Corp). Specifically, a 600 bp Spe I--Kpn I fragment spanning the CMV promoter from pCEP4 and a 9500 bp Xba I--Kpn I vector fragment from pMEP4 were isolated and ligated together to form pBL3. Full length sPAP cDNA was amplified by PCR using the plasmid pGEM4Z/SEAP (ATCC) as template with primers 5'-[…]-3' (SEQ ID NO. 1) and 5'-[…]-3' (SEQ ID NO. 2). The PCR product was then digested with Xba I and Sal I and inserted between the Nhe I site and the Xho I site within the multiple cloning region of pBL3. The resulting plasmid was designated as PCMV.AP.

293-EBNA cells [3] = assay: Viability of 293-EBNA cells, Alamar Blue; assay type: cell-based, human
Procedure: (§1) Cell viability was measured by a colorimetric assay that uses Alamar Blue dye (Alamar, Inc.) to report cell proliferation, viability and cytotoxicity. This vital dye indicates cell activity by serving as substrate for mitochrondrial dehydrogenases for the formation of soluble dyes which can be quantitated by determining the difference in absorbance between A570 and A600 using a plate reader.
as §1, with “[…]” for “colorimetric”
This example illustrates that CT2576 suppressed both tat-dependent and TNF-α induced HIV-LTR transcription with an IC50 of approximately 10 μM. Study of the effects of CT2576 on cell toxicity was performed using the Alamar Blue™ dye (Alamar Biosciences) according to the manufacturer's instructions. CT2576 was not toxic to 293-EBNA cells at concentrations up to 35 μM. To show CT2576 can inhibit HIV expression, CT2576 was tested for the ability to block HIV p24 antigen expression in chronically or acutely infected cells. Specifically, CT2576 inhibited the TNF-α and IL-6 induced and the constitutive expression of HIV in the chronically infected U1 cells and in peripheral blood lymphocytes (PBL) freshly infected with a HIV strain from a clinical isolate with an IC50 of approximately 1 μM. Pharmacological inhibition of synthesis of selected PL may therefore be a novel therapeutic approach to suppression of HIV replication.

293-EBNA cells [4] = system: 293-EBNA cells
[5] = system: PA (phosphatidic acid) formation in tat-transfected and tar-transfected cells; assay: PA mass / myrPA formation in serum-stimulated EB293, 293tat and 293tar cells; assay type: cell-based, human
Procedure: Transformed and serum-stimulated cells were measured for total PA mass according to the methods described herein. […] The columns in FIG. 18 represent: (1) EB293 cells plus serum, (2) EB293 cells plus serum plus CT3556 (10 μM.), (3) 293tat cells plus serum, (4) 293tat cells plus serum plus CT3556 (10 μM.), (5) 293tar cells plus serum, and (6) 293tar cells plus serum plus CT3556 (10 μM.).
This procedure begins with those cells that would be normally infected with a virus, such as a retrovirus. However, it is not necessary to utilize a cell line containing a retroviral genome, such as U1 cells. In view of the necessity to utilize containment facilities when using an infected cell line, it is preferable to utilize a macrophage cell line that is not infected. Examples of appropriate macrophage cell lines include, U937, THP1, U1, and P288s (available from standard sources, such as ATCC). The cells are stimulated with a stimulant with or without a candidate drug. Examples of stimulants include 3-5% serum, such as fetal calf serum, or tumor necrosis factor (TNF) (e.g., 20 ng/ml) both of which are standard laboratory reagents. After a time course (within 5 minutes, preferably within 1 minute), the cells are immersed in ice cold methanol to stop any cellular signaling reactions.
One must first quantitatively and qualitatively separate PAs from the other lipids found in serum by a chemical extraction of lipids and high performance liquid chromatography (HPLC) to separate and detect PAs. Chemical extraction can be accomplished, for example, by the method of Bligh et al. (Canadian J. Biochem. Physiol. 37:911-917, 1959) or that of Folch et al. (J. Biol. Chem. 226:497-509, 1957). Briefly, the method of Bligh et al. involves an organic extraction of lipids from biological tissue homogenates or fluids. One volume of sample and three volumes of methanol:chloroform (2:1) are vigorously shaken for 2 min. One volume of chloroform is added and then shaken vigorously for 30 sec. One volume of water is added and then shaken vigorously for 30 sec. The mixture is filtered and the upper aqueous layer is discarded. The lower organic layer contains a mixture of lipid classes. The method of Folch et al. involves the extraction of lipids from biological tissue homogenates or body fluids. One volume of sample plus 20 volumes of chloroform:methanol (2:1) are vigorously shaken for 2 min. The mixture is filtered and an amount of 0.1 N KCl equal to 20% of the extraction mixture volume is added and the mixture is shaken vigorously for 2 min. The aqueous and organic phases are allowed to separate. The upper aqueous layer is discarded. The lower organic layer contains a mixture of lipid classes. Free fatty acids and neutral lipids can be separated from phospholipids by normal phase high performance liquid chromatography (HPLC) by modifying the method of Van Kessel et al. (Biochim et Biophys Acta 486:524-530, 1977). This method involves separation of lipids into their major classes by normal phase (silica) high performance liquid chromatography (HPLC). A 5 micron, 25 cm×0.45 cm silica HPLC column is connected to a binary solvent delivery system followed with a UV detector. The lipid sample is injected on the column and a solvent gradient is run at 1.0 ml/min. […]
Transformed and serum-stimulated cells were measured for total PA mass according to the methods described herein. […]

Row | SMILES | inhibition of AP expression (HIV-LTR promoter) [1] | IC50 [2] [µM] | inhibition of AP expression (CMV promoter) [2] | cytotoxic effect on 293-EBNA cells (Alamar Blue) (293-EBNA cells [3]) | effect on cell viability / cytotoxicity (293-EBNA cells [4]) | inhibition of myrPA formation in stimulated cells ([5]; 10 μM, tat-transfected cells stimulated with serum) | PA mass, 293tar cells plus serum ([5]; CT3556 10 μM (FIG. 18)) | PA mass, 293tat cells plus serum ([5]; CT3556 10 μM (FIG. 18))
1 | CCCCCCNCCCC(O)CCCCCCCn1c(=O)c2c(ncn2C)n(C)c1=O (stereo not drawn) [CT2575, 1-(11-hexylamino-8-hydroxyundecyl)-3,7-dimethylxanthine] | inhibit HIV promoter driven expression | 3 | inhibit CMV promoter driven expression | no significant cytotoxic effect | minimal cytotoxic effects | – | – | –
2 | CCCCCCCCNCCCCCCCCCCCn1c(=O)c2c(ncn2C)n(C)c1=O [CT3556, 1-(11-N-octylaminoundecyl)-3,7-dimethylxanthine] | – | – | – | – | – | inhibited myrPA formation in stimulated cells | significant drop in PA mass | increase in PA was blocked
3 | Cn1cnc2c1c(=O)n(CCCCCCCCCC(O)CNc1ccccc1)c(=O)n2C (stereo not drawn) [CT3528, N-(11-phenylamino-10-hydroxundecyl)-3,7-dimethylxanthine] | – | – | No appreciable inhibition of AP expression | no significant cytotoxic effect | – | – | – | –
4 | CCCCCCCCCCNCC(O)CCCCCCCn1c(=O)c2c(ncn2C)n(C)c1=O (stereo not drawn) [CT2571, 1-(9-decylamino-8-hydroxynonyl)-3,7-dimethylxanthine] | – | 8 | – | cytotoxic | – | – | – | –
